Patent US9737073B2, “Herbicidal weed control from combinations of fluroxypyr and ALS inhibitors” (Dow AgroSciences LLC, priority 2014, dated 2017)
Values joined by “and” are separate entries in the source; they are usually repeats but may differ in a detail not shown here. Identical values can stand only once.

What was measured:
Assay type in all cases: in vivo
[1] = test system: Sida cordifolia L. (heartleaf sida, SIDCO); assay: Postemergence herbicidal weed control, fluroxypyr-meptyl and diclosulam, greenhouse trials (Table 1); details: 14DAA1, 200 g ae/ha
Experimental: (§1) Seeds of the desired test plant species were planted in a peat-based potting soil, Metro-Mix 360® in plastic pots with a surface area of 128 square centimeters (cm^2). Metro-Mix 360® consists of formulated Canadian sphagnum peat moss, coarse perlite, bark ash, a starter nutrient charge (with gypsum), a slow-release nitrogen and dolomitic limestone. The plants were grown for 7-19 days in a greenhouse with an approximate 14-hour (h) photoperiod which was maintained at about 29° C. during the day and 26° C. during the night. Nutrients and water were added on a regular basis and supplemental lighting was provided with overhead metal halide 1000-Watt lamps as necessary. The plants were treated with postemergence foliar applications when they reached the third to fourth true leaf stage. All treatments were applied using a randomized complete block trial design, with 4 replications per treatment.
Treatments consisted of the compounds as listed in Tables 1 to 4, each compound applied alone and in combination. […]
Treatments were rated at 7 to 21 days after application (DAA) as compared to the untreated control plants. Visual weed control was scored on a scale of 0 to 100 percent where 0 corresponds to no injury and 100 corresponds to complete kill. […]

[2] = test system: Abutilon theophrasti (velvetleaf, ABUTH); assay: Postemergence herbicidal weed control, fluroxypyr-meptyl and cloransulam-methyl, field trials (Table 2)
Experimental: as §1
(§2) Treatments consisted of the compounds as listed in Tables 1 to 4, each compound applied alone and in combination. Commercially formulated products of fluroxypyr-meptyl (STARANE™, 333 grams acid equivalent per liter (g ae/L) EC), diclosulam (SPIDER® 84WG), cloransulam-methyl (FIRSTRATE™ 84WG), chlorimuron-ethyl (CLASSIC® 25WG) and thifensulfuron-methyl (HARMONY® 50SG). Formulated amounts of fluroxypyr-meptyl, diclosulam, cloransulam-methyl, chlorimuron-ethyl and thifensulfuron-methyl were placed in 60 milliliter (mL) glass vials and dissolved in a volume of 30 or 60 mL of a water solution containing Agri-dex crop oil concentrate in a 1% volume per volume (v/v) ratio. Compound requirements are based upon either a 30- or a 60-mL application volume at a rate of 200 liters per hectare (L/ha). Spray solutions of the mixtures were prepared by adding the stock solutions to the appropriate amount of dilution solution to form either a 30- or a 60-mL spray solution with active ingredients in single and two-way combinations. Formulated compounds were applied to the plant material with an overhead Generation III Research Sprayer manufactured by DeVries Manufacturing in Hollandale, Minn., USA. The track sprayer was equipped with an 8003E nozzle calibrated to deliver 200 L/ha at a spray height of 18 inches (43 centimeters (cm)) above average plant canopy.
(§3) The treated plants and untreated control plants were placed in a greenhouse as described above and watered by sub-irrigation to prevent wash-off of the test compounds.
(§4) Treatments were rated at 7 to 21 days after application (DAA) as compared to the untreated control plants. Visual weed control was scored on a scale of 0 to 100 percent where 0 corresponds to no injury and 100 corresponds to complete kill.
(§5) Field trials were conducted using standard herbicide small plot research methodology. Plots varied from 3×3.3 meter (m) to 4.5×10 m (width×length) with 4 replicates per treatment. The crops used in the field trials were grown using normal cultural practices for land preparation, fertilization, seeding and maintenance to ensure good growth of the crop and the weeds.
(§6) All treatments in the field trials were applied using either pressurized air or carbon dioxide (CO2) backpack or bicycle sprayers calibrated to apply 100-187 L/ha spray volume. Flat Fan spray nozzles were used in all trials, with water as the diluent applied at 275-300 kilopascals (kPa). Weed sizes at application ranged from 10 to 40 cm tall. Commercially available products of fluroxypyr-meptyl (STARANE™, 180 and 333 g ae/L EC), diclosulam (SPIDER® 84WG), and thifensulfuron-methyl (HARMONY® 75WG) were mixed in water at appropriately formulated product rates to achieve the desired rates based on a unit area of application (hectare) to achieve the desired rates as shown. No adjuvants were tank-mixed with any treatments applied in the field trials. Treatments were rated at 14-26 days after application as compared to the untreated control plants. […]

[3] = test system: Amaranthus rudis Sauer (common waterhemp, AMATA); assay: as above
Experimental: as §1, §2, §3, §4, §5, §6

[4] = test system: Abutilon theophrasti (velvetleaf, ABUTH); assay: Postemergence herbicidal weed control, fluroxypyr-meptyl and chlorimuron-ethyl, field trials (Table 3)
Experimental: as §1, §2, §3, §4, §5, §6

[5] = test system: Amaranthus rudis Sauer (common waterhemp, AMATA); assay: as above
Experimental: as §1, §2, §3, §4, §5, §6

[6] = test system: Amaranthus retroflexus L. (redroot pigweed, AMARE); assay: Postemergence herbicidal weed control, fluroxypyr-meptyl and thifensulfuron-methyl, field trials (Table 4); details: 21DAA1, 17.5 g ae/ha
Experimental: as §5
(§7) All treatments in the field trials were applied using either pressurized air or carbon dioxide (CO2) backpack or bicycle sprayers calibrated to apply 100-187 L/ha spray volume. Flat Fan spray nozzles were used in all trials, with water as the diluent applied at 275-300 kilopascals (kPa). Weed sizes at application ranged from 10 to 40 cm tall. Commercially available products of fluroxypyr-meptyl (STARANE™, 180 and 333 g ae/L EC), diclosulam (SPIDER® 84WG), and thifensulfuron-methyl (HARMONY® 75WG) were mixed in water at appropriately formulated product rates to achieve the desired rates based on a unit area of application (hectare) to achieve the desired rates as shown. No adjuvants were tank-mixed with any treatments applied in the field trials. Treatments were rated at 14-26 days after application as compared to the untreated control plants. Visual weed control was scored on a scale of 0 to 100 percent where 0 corresponds to no injury and 100 corresponds to complete kill.
(§8) The treated plots and control plots were rated blind at various intervals after application. Ratings were reported on a Percent (%) Visual Control basis, where 0 corresponds to no visual effect/weed control and 100 corresponds to complete kill of the target weeds.
(§9) Colby's equation was used to determine the herbicidal effects expected from the mixtures (Colby, S. R. Calculation of the synergistic and antagonistic response of herbicide combinations. Weeds 196715, 20-22). A t-test (alpha=0.05) between Colby predictions and observed combinations was used to test for significant differences indicating synergy or antagonism. The results presented in the Tables were significant according to the described criteria.
(§10) The following equation was used to calculate the expected activity of mixtures containing two active ingredients, A and B: Expected=A+B−(A×B/100) • A=observed efficacy of active ingredient A at the same concentration as used in the mixture; • B=observed efficacy of active ingredient B at the same concentration as used in the mixture.

[7] = test system: Chenopodium album (common lambsquarters, CHEAL); assay: as above; details: 21DAA1, 17.5 g ae/ha
Experimental: as §5, §7, §8, §9, §10

[8] = test system: Polygonum convolvulus L. (wild buckwheat, POLCO); assay: as above; details: 21DAA1, 17.5 g ae/ha
Experimental: as §5, §7, §8, §9, §10

**Q.** For `CCCCCCC(C)OC(=O)COc1nc(F)c(Cl)c(N)c1Cl` (stereo not shown) [Fluroxypyr-meptyl, fluroxypyr-methylheptyl ester], which “Fluroxypyr-meptyl Mean % weed control” value [1] is on record?
**A.** Its value is 30.0%.

**Q.** And the “Fluroxypyr-meptyl Mean % weed control” value ([2]; 14DAA1, 25 g ae/ha)?
**A.** The value was 68.3% and 70.0%.

**Q.** And the “Fluroxypyr-meptyl Mean % weed control” value ([2]; 21DAA1, 25 g ae/ha)?
**A.** Its value is 71.7% and 72.5%.

**Q.** What about the “Fluroxypyr-meptyl Mean % weed control” value ([3]; 8DAA1, 25 g ae/ha) of the same compound?
**A.** Its value is 42.5%.

**Q.** And the “Fluroxypyr-meptyl Mean % weed control” value ([3]; 14DAA1, 25 g ae/ha)?
**A.** The value was 21.3%.

**Q.** What about the “Fluroxypyr-meptyl Mean % weed control” value ([3]; 21DAA1, 25 g ae/ha) of the same compound?
**A.** The value was 22.5%.

**Q.** What about the “Fluroxypyr-meptyl Mean % weed control” value ([4]; 14DAA1, 50 g ae/ha) of the same compound?
**A.** The value was 67.0%.

**Q.** And the “Fluroxypyr-meptyl Mean % weed control” value ([4]; 14DAA1, 100 g ae/ha)?
**A.** The value was 80.8%.

**Q.** What about the “Fluroxypyr-meptyl Mean % weed control” value ([5]; 7DAA1, 25 g ae/ha) of the same compound?
**A.** Its value is 25.0%.

**Q.** What about the “Fluroxypyr-meptyl Mean % weed control” value ([5]; 14DAA1, 25 g ae/ha) of the same compound?
**A.** Its value is 7.5%.

**Q.** What about the “Fluroxypyr-meptyl Mean % weed control” value [6] of the same compound?
**A.** Its value is 3.8%.

**Q.** And the “Fluroxypyr-meptyl Mean % weed control” value [7]?
**A.** Its value is 3.8%.

**Q.** What about the “Fluroxypyr-meptyl Mean % weed control” value [8] of the same compound?
**A.** Its value is 2.5%.
